Results as given in publication PMC7930720, “Functional Expression of the Human Glucose Transporters GLUT2 and GLUT3 in Yeast Offers Novel Screening Systems for GLUT-Targeting Drugs” (Frontiers in Molecular Biosciences, 2021).

Experiments:
Assay type in all cases: cell-based
GLUT2 [1] = target: T1, GLUT2 (Homo sapiens, UniProt P11168, A89S/DEL55-88/Q455R); assay: inhibition of […]-glucose ([…]) uptake in hxt0 EBY.S7 yeast expressing the transporter
T1 construct: gene SLC2A2
T1 sequence (P11168 with tags, fused parts or gaps DEL55-88/A89S/Q455R): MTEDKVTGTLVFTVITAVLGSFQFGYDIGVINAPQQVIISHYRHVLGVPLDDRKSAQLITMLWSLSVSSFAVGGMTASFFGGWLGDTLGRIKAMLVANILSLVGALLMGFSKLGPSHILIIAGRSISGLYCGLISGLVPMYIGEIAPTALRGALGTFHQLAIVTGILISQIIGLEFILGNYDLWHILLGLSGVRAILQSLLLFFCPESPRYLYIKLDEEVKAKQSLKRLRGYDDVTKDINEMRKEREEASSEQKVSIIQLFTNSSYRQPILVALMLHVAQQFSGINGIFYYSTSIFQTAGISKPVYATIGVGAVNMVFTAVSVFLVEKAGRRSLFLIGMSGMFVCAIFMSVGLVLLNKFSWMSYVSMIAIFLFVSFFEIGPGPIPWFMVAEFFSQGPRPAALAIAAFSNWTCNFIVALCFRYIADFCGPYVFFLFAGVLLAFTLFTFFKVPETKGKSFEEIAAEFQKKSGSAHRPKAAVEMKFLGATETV

GLUT3 [2] = target: T2, GLUT3 (Homo sapiens, UniProt P11169, S66Y); assay: as above
T2 construct: gene SLC2A3; GLUT3S66Y
T2 sequence (P11169 1-496 S66Y): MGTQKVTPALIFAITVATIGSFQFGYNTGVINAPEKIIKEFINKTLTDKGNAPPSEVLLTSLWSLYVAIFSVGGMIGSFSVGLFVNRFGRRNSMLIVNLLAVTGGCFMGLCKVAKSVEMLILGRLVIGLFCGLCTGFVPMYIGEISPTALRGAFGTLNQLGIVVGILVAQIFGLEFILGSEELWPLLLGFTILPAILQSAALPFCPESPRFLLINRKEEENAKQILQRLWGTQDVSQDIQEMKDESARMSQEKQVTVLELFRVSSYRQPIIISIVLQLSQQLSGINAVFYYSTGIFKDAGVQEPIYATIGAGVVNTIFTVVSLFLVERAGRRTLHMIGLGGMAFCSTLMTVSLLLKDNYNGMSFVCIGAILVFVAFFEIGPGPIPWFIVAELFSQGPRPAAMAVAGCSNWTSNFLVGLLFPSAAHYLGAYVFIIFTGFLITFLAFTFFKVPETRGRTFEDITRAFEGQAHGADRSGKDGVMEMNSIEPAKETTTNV

GLUT2 [3] = target: T1, GLUT2; assay: inhibition of […]-glucose ([…]) uptake in hxt0 EBY.S7 yeast expressing the transporter; growth assay
GLUT3 [4] = target: T2, GLUT3; assay: as above

Row | IC50 (GLUT2 [3]) [µM] | IC50 (GLUT3 [4]) [µM] | SMILES | IC50 (GLUT2 [1]) [µM] | IC50 (GLUT3 [2]) [µM]
1 |  |  | O=c1c(O)c(-c2ccc(O)c(O)c2)oc2cc(O)cc(O)c12 [quercetin] | 3.22 ± 0.45 | 11.6 ± 0.6
2 | 1.07 ± 0.11 | 22.4 ± 1.8 | O=C(CCc1ccc(O)cc1)c1c(O)cc(O)cc1O [phloretin] |  | 
